How the values were obtained:
Assay type in all cases: in vivo
[1] = system: barnyardgrass (Echinochloa crus-galli); experiment: Test A preemergence soil spray, visual injury rating 0-100; settings: 10 days
Procedure, shortened: (§1)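 Grow plants in loam soil blended with sand. Apply formulated compound (non-phytotoxic solvent, surfactant) as a directed soil spray before emergence, or to plants at the one- to two-leaf stage after emergence. Hold in greenhouse 10 days, then rate injury visually versus untreated controls on a 0-100 scale.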

[2] = system: green foxtail (Setaria viridis); experiment: as above; settings: 10 days
Procedure, shortened: as §1

[3] = system: oat, wild (wild oat, Avena fatua); experiment: as above; settings: 10 days
Procedure, shortened: as §1

[4] = system: corn (Zea mays); experiment: as above; settings: 10 days
Procedure, shortened: as §1

[5] = system: blackgrass (Alopecurus myosuroides); experiment: as above; settings: 10 days
Procedure, shortened: as §1

[6] = system: wheat (Triticum aestivum); experiment: as above; settings: 10 days
Procedure, shortened: as §1

[7] = system: palmer (palmer amaranth, palmer pigweed, Amaranthus palmeri); experiment: as above; settings: 10 days
Procedure, shortened: as §1

[8] = system: soybean (Glycine max); experiment: as above; settings: 10 days
Procedure, shortened: as §1

[9] = system: kochia (Bassia scoparia); experiment: as above; settings: 10 days
Procedure, shortened: as §1

[10] = system: ragweed (common ragweed, Ambrosia artemisiifolia); experiment: as above; settings: 10 days
Procedure, shortened: as §1

[11] = system: ryegrass, Italian (italian ryegrass, Lolium multiflorum); experiment: as above; settings: 10 days
Procedure, shortened: as §1

[12] = system: rice (Oryza sativa); experiment: Test B flooded paddy test, visual plant response rating 0-100; settings: 250 g ai/ha, Flood, applied to paddy water, evaluated after 13 days
Procedure, shortened: (§2)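 Greenhouse, 13 d. Seedlings at 2-leaf stage, pots flooded to 3 cm, compound delivered into floodwater, water level held constant. Evaluated visually relative to controls.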

[13] = system: ducksalad (Heteranthera limosa); experiment: as above; settings: 250 g ai/ha, Flood, applied to paddy water, evaluated after 13 days
Procedure, shortened: as §2

[14] = system: barnyardgrass (Echinochloa crusgalli); experiment: as above; settings: 250 g ai/ha, Flood, applied to paddy water, evaluated after 13 days
Procedure, shortened: as §2

[15] = system: sedge, umbrella (small-flower umbrella sedge, Cyperus difformis); experiment: as above; settings: 250 g ai/ha, Flood, applied to paddy water, evaluated after 13 days
Procedure, shortened: as §2

[16] = system: barnyardgrass (Echinochloa crus-galli); experiment: Test A postemergence application, visual injury rating 0-100
Procedure, shortened: as §1

[17] = system: galium (catchweed bedstraw, Galium aparine); experiment: as above
Procedure, shortened: as §1

[18] = system: green foxtail (Setaria viridis); experiment: as above
Procedure, shortened: as §1

[19] = system: oat, wild (wild oat, Avena fatua); experiment: as above
Procedure, shortened: as §1

[20] = system: corn (Zea mays); experiment: as above
Procedure, shortened: as §1

[21] = system: horseweed (Erigeron canadensis); experiment: as above
Procedure, shortened: as §1

[22] = system: blackgrass (Alopecurus myosuroides); experiment: as above
Procedure, shortened: as §1

[23] = system: wheat (Triticum aestivum); experiment: as above
Procedure, shortened: as §1

[24] = system: palmer (palmer amaranth, palmer pigweed, Amaranthus palmeri); experiment: as above
Procedure, shortened: as §1

[25] = system: soybean (Glycine max); experiment: as above
Procedure, shortened: as §1

[26] = system: kochia (Bassia scoparia); experiment: as above
Procedure, shortened: as §1

[27] = system: ragweed (common ragweed, Ambrosia artemisiifolia); experiment: as above
Procedure, shortened: as §1

[28] = system: ryegrass, Italian (italian ryegrass, Lolium multiflorum); experiment: as above
Procedure, shortened: as §1

[29] = 62 g ai/ha, 0 = no effect, 100 = complete control
[30] = 125 g ai/ha, 0 = no effect, 100 = complete control
[31] = 62 g ai/ha, postemergence, 10 days, 0 = no effect, 100 = complete control
[32] = Postemergence, 16 g ai/ha, greenhouse 10 days, 0 no effect, 100 complete control

SMILES: CC(C)COC(=O)C1=CCC(NC(=O)C2(C)CN(c3cc(F)cc(F)c3)C(=O)O2)C1 (centres unmarked) [Compound 98]
- Barnyardgrass plant response rating ([1]; 16 g ai/ha, 0 to 100 scale): 10
- Barnyardgrass plant response rating (0-100) [1, 29]: 90
- Barnyardgrass plant response rating (0 to 100 scale) [1, 30]: 70
- Foxtail, Green plant response rating ([2]; 16 g ai/ha, 0 to 100 scale): 70
- Foxtail, Green plant response rating (0-100) [2, 29]: 100
- Oat, Wild plant response rating ([3]; 16 g ai/ha, 0 to 100 scale): 0
- Oat, Wild plant response rating (0-100) [3, 29]: 40
- Oat, Wild plant response rating (0 to 100 scale) [3, 30]: 20
- Corn plant response rating ([4]; 16 g ai/ha, 0 to 100 scale): 0
- Corn plant response rating (0-100) [4, 29]: 90
- Corn plant response rating (0 to 100 scale) [4, 30]: 20
- Blackgrass plant response rating ([5]; 16 g ai/ha, 0 to 100 scale): 10
- Blackgrass plant response rating (0-100) [5, 29]: 50
- Blackgrass plant response rating (0 to 100 scale) [5, 30]: 0
- Wheat plant response rating ([6]; 16 g ai/ha, 0 to 100 scale): 30
- Wheat plant response rating (0-100) [6, 29]: 90
- Wheat plant response rating (0 to 100 scale) [6, 30]: 70
- Pigweed, Palmer plant response rating ([7]; 16 g ai/ha, 0 to 100 scale): 10
- Pigweed, Palmer plant response rating (0-100) [7, 29]: 50
- Amaranth, Palmer plant response rating (0 to 100 scale) [7, 30]: 100
- Soybean plant response rating ([8]; 16 g ai/ha, 0 to 100 scale): 0
- Soybean plant response rating (0-100) [8, 29]: 50
- Soybean plant response rating (0 to 100 scale) [8, 30]: 10
- Kochia plant response rating ([9]; 16 g ai/ha, 0 to 100 scale): 80
- Kochia plant response rating (0-100) [9, 29]: 90
- Kochia plant response rating (0 to 100 scale) [9, 30]: 90
- Ragweed plant response rating ([10]; 16 g ai/ha, 0 to 100 scale): 0
- Ragweed plant response rating (0-100) [10, 29]: 0
- Ragweed plant response rating (0 to 100 scale) [10, 30]: 50
- Ryegrass, Italian plant response rating ([11]; 16 g ai/ha, 0 to 100 scale): 0
- Ryegrass, Italian plant response rating (0-100) [11, 29]: 80
- Ryegrass, Italian plant response rating (0 to 100 scale) [11, 30]: 80
- Plant response rating, Rice (0 to 100 scale, 0 is no effect and 100 is complete control) [12]: 70
- Plant response rating, Ducksalad (0 to 100 scale, 0 is no effect and 100 is complete control) [13]: 75
- Plant response rating, Barnyardgrass (0 to 100 scale, 0 is no effect and 100 is complete control) [14]: 65
- Plant response rating, Sedge, Umbrella (0 to 100 scale, 0 is no effect and 100 is complete control) [15]: 98
- Barnyardgrass plant response rating (0-100) [16, 31]: 100
- Barnyardgrass plant response rating (0 to 100 scale) [16, 32]: 100
- Galium plant response rating (0-100) [17, 31]: 90
- Galium plant response rating (0 to 100 scale) [17, 32]: 80
- Foxtail, Green plant response rating (0-100) [18, 31]: 90
- Foxtail, Green plant response rating (0 to 100 scale) [18, 32]: 80
- Oat, Wild plant response rating (0-100) [19, 31]: 100
- Oat, Wild plant response rating (0 to 100 scale) [19, 32]: 60
- Corn plant response rating (0-100) [20, 31]: 100
- Corn plant response rating (0 to 100 scale) [20, 32]: 90
- Horseweed plant response rating (0-100) [21, 31]: 60
- Horseweed plant response rating (0 to 100 scale) [21, 32]: 20
- Blackgrass plant response rating (0-100) [22, 31]: 90
- Blackgrass plant response rating (0 to 100 scale) [22, 32]: 80
- Wheat plant response rating (0-100) [23, 31]: 80
- Wheat plant response rating (0 to 100 scale) [23, 32]: 70
- Pigweed, Palmer plant response rating (0-100) [24, 31]: 90
- Pigweed, Palmer plant response rating (0 to 100 scale) [24, 32]: 70
- Soybean plant response rating (0-100) [25, 31]: 60
- Soybean plant response rating (0 to 100 scale) [25, 32]: 50
- Kochia plant response rating (0-100) [26, 31]: 90
- Kochia plant response rating (0 to 100 scale) [26, 32]: 80
- Ragweed plant response rating (0-100) [27, 31]: 60
- Ragweed plant response rating (0 to 100 scale) [27, 32]: 50
- Ryegrass, Italian plant response rating (0-100) [28, 31]: 90
- Ryegrass, Italian plant response rating (0 to 100 scale) [28, 32]: 80

Reference: patent US20260285850A1, “SUBSTITUTED OXAZOLIDINONES AND IMIDAZOLINONES AS HERBICIDES” (FMC CORPORATION, priority 2023, published 2026)
